Results as given in patent US10808005B2, “Ligand for orphan nuclear receptor Nur77 and uses thereof” (IXMEDICINE (XIAMEN) BIOLOGICAL TECHNOLOGY COMPANY LIMITED, priority 2016, dated 2020).
Where two headings read alike, the source gives them in different places.

Columns and labels:
MDA-MB-231 = test: Proliferation of MDA-MB-231 breast cancer cells; format: cell-based; details: Homo sapiens
MDA-MB-231 cells = test: Immunoblot of parp (apoptosis) in MDA-MB-231 cells; format: cell-based; details: 4 μM and TNFα (20 ng/ml)
[1] = tested on: BT474, ZR-75-1, BT549, HCC1937, HS578T, MCF-7, and T47D; test: Inhibition rate on seven breast cancer cells; format: cell-based; details: various breast cancer cells, FIG. 11C
[2] = tested on: IκBα and phosphorylated IKKα/β; test: Immunoblot of IκBα and phosphorylated IKKα/β in TNFα-treated HepG2 cells; format: cell-based; details: TNFα 20 ng/mL 30 minutes
From the text: IκBα and phosphorylated IKKα/β in the cells were then detected by WB.
In addition, HepG2 cells were also applied in the experiment. […] IκBα in the cells was then detected by WB.

mTOR signaling pathway = test: Immunoblot of p-mTOR, p-P70S6K, p-S6 in TNFα-treated starved MDA-MB-231 cells; format: cell-based; details: MDA-MB-231, serum-free 10 h; 2 μM and TNFα (20 ng/ml)
Nur77-LBD = Nur77-LBD (Homo sapiens, UniProt P22736); test: Surface plasmon resonance (Biacore T200) binding to Nur77-LBD
Chain of Nur77-LBD (P22736 360-595 limits assumed): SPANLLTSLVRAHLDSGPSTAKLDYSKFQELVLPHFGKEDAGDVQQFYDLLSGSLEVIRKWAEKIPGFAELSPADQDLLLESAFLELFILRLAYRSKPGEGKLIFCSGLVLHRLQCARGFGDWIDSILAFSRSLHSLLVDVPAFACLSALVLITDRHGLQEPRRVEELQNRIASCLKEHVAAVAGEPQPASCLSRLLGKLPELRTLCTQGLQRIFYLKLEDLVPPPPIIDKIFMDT

MCF-7 = test: Proliferation of MCF-7 breast cancer cells; format: cell-based; details: Homo sapiens, read-out: IC50 for inhibiting the proliferation
wild-type Hela cells = test: Proliferation of wild-type Hela cells; format: cell-based; details: Homo sapiens
BT549 = test: Proliferation of BT549 breast cancer cells; format: cell-based; details: Homo sapiens, BT-549; BT549, 72 h; read-out: IC50 for inhibiting the proliferation
MDA-MB-468 = test: Proliferation of MDA-MB-468 breast cancer cells; format: cell-based; details: Homo sapiens, MDA-MB-468, 72 h; read-out: IC50 for inhibiting the proliferation
[3] = tested on: Nur77 knocked-out Hela cells; test: Proliferation of Nur77 knocked-out Hela cells; format: cell-based; details: Homo sapiens
T47D = test: Proliferation of T47D breast cancer cells; format: cell-based; details: Homo sapiens, 72 h, read-out: IC50 for inhibiting the proliferation
SKBR3 = test: Proliferation of SKBR3 breast cancer cells; format: cell-based; details: Homo sapiens, SK-BR-3; SKBR3, 72 h; read-out: IC50 for inhibiting the proliferation
[4] = Acute toxicity model mice, histopathology; format: in vivo
From the text: The tissue morphologies of the heart, liver, small intestine, white fat and kidney were observed by Histopathological method.

[5] = MDA-MB-231, FIG. 11B, read-out: IC50 for the inhibition of proliferation
[6] = Biacore T200, read-out: dissociation constant (Kd) to Nur77-LBD
[7] = single intragastric injection 200 mg/kg
[8] = single intraperitoneal injection 20 mg/kg

**Q.** With `COC(=O)[C@]1(C)CC[C@]2(C)CC[C@]3(C)C4=CC=C5C(=CC(=O)C(O)=C5C)[C@]4(C)CC[C@@]3(C)[C@@H]2C1` [XS0077] as the compound, how does the IC50 (MDA-MB-231; MDA-MB-231, read-out: IC50 for the inhibition of proliferation) read?
**A.** The IC50 was 1.84 µM.

**Q.** What about the “PARP cleavage in comparison with YXY101” value (MDA-MB-231 cells) of the same compound?
**A.** Its value is “can more significantly induce PARP cleavage”.

**Q.** With `CC1=C(O)C(=O)C=C2C1=CC=C1[C@@]2(C)CC[C@@]2(C)[C@@H]3C[C@](C)(C(=O)OCc4ccccc4)CC[C@]3(C)CC[C@]12C` [XS0285] as the compound, how does the “inhibitory effects on proliferation compared with YXY101” value [1] read?
**A.** Its value is “close or even stronger than that of YXY101”.

**Q.** With `COc1ccc(NC(=O)[C@]2(C)CC[C@]3(C)CC[C@]4(C)C5=CC=C6C(=CC(=O)C(O)=C6C)[C@]5(C)CC[C@@]4(C)[C@@H]3C2)cc1` [XS0287] as the compound, how does the “TNFα-induced degradation of IκBα” value [2] read?
**A.** Its value is “capable of inhibiting TNFα-induced degradation of IκBα”.

**Q.** What does the source list for `Cc1c(O)c(O)cc2c1CCC1[C@@]2(C)CC[C@@]2(C)[C@@H]3C[C@](C)(C(=O)O)CC[C@]3(C)CC[C@]12C` (stereo partly shown) [XS0335]?
**A.** P-mTOR, P-p70S6K, and P—S6 in comparison with YXY101 (mTOR signaling pathway): can more significantly reduce P-mTOR, P-p70S6K, and P—S6; IC50 (MDA-MB-231; [5]): 1.88 µM

**Q.** Which Kd (Nur77-LBD; [6]) does the source give for `CCOC(=O)OC1=C(C)C2=CC=C3[C@@](C)(CC[C@@]4(C)[C@@H]5C[C@](C)(C(=O)O)CC[C@]5(C)CC[C@]34C)C2=CC1=O` [XS0394] here?
**A.** Its Kd is 1.26 µM.

**Q.** What about the “P-mTOR, P-p70S6K, and P—S6 in comparison with YXY101” value (from here on “P-mTOR, P-p70S6K, and P—S6”) (mTOR signaling pathway) of the same compound?
**A.** The value was “can more significantly reduce P-mTOR, P-p70S6K, and P—S6”.

**Q.** Which Kd (Nur77-LBD; [6]) does the source give for `CCOC(=O)COC(=O)[C@]1(C)CC[C@]2(C)CC[C@]3(C)C4=CC=C5C(=CC(=O)C(O)=C5C)[C@]4(C)CC[C@@]3(C)[C@@H]2C1` [XS0418] here?
**A.** The Kd was 3.67 µM.

**Q.** And the “inhibitory effects on proliferation compared with YXY101” value [1]?
**A.** Its value is “close or even stronger than that of YXY101”.

**Q.** And the “P-mTOR, P-p70S6K, and P—S6” value (mTOR signaling pathway)?
**A.** Its value is “can more significantly reduce P-mTOR, P-p70S6K, and P—S6”.

**Q.** What about the “PARP cleavage in comparison with YXY101” value (MDA-MB-231 cells) of the same compound?
**A.** The value was “can more significantly induce PARP cleavage”.

**Q.** For `Cc1c(O)c(O)cc2c1CC=C1[C@@]2(C)CC[C@@]2(C)[C@@H]3C[C@](C)(C(=O)O)CC[C@]3(C)CC[C@]12C` [XS0419], which Kd (Nur77-LBD) is on record?
**A.** Its Kd is 0.404 µM.

**Q.** What about the “inhibitory effects on proliferation compared with YXY101” value [1] of the same compound?
**A.** Its value is “close or even stronger than that of YXY101”.

**Q.** And the “P-mTOR, P-p70S6K, and P—S6” value (mTOR signaling pathway)?
**A.** Its value is “can more significantly reduce P-mTOR, P-p70S6K, and P—S6”.

**Q.** And the IC50 (MDA-MB-231; [5])?
**A.** Its IC50 is 1.27 µM.

**Q.** And the “PARP cleavage in comparison with YXY101” value (MDA-MB-231 cells)?
**A.** The value was “can more significantly induce PARP cleavage”.

**Q.** For `CCOC(=O)[C@]1(C)CC[C@]2(C)CC[C@]3(C)C4=CC=C5C(=CC(=O)C(O)=C5C)[C@]4(C)CC[C@@]3(C)[C@@H]2C1` [XS0462], which “inhibitory effects on proliferation compared with YXY101” value [1] is on record?
**A.** Its value is “close or even stronger than that of YXY101”.

**Q.** For `[2H]C1C=C2[C@@](C)(CC[C@@]3(C)[C@@H]4C[C@](C)(C(=O)O)CC[C@]4(C)CC[C@]23C)c2cc(O)c(O)c(C)c21` (stereo partly shown) [XS0474], which Kd (Nur77-LBD) is on record?
**A.** The Kd was 2.6 µM.

**Q.** And the “P-mTOR, P-p70S6K, and P—S6” value (mTOR signaling pathway)?
**A.** Its value is “can more significantly reduce P-mTOR, P-p70S6K, and P—S6”.

**Q.** What about the IC50 (MDA-MB-231; [5]) of the same compound?
**A.** Its IC50 is 2.93 µM.

**Q.** With `COP(=O)(OC)OC(=O)[C@]1(C)CC[C@]2(C)CC[C@]3(C)C4=CC=C5C(=CC(=O)C(O)=C5C)[C@]4(C)CC[C@@]3(C)[C@@H]2C1` [XS0486] as the compound, how does the “P-mTOR, P-p70S6K, and P—S6” value (mTOR signaling pathway) read?
**A.** Its value is “can more significantly reduce P-mTOR, P-p70S6K, and P—S6”.

**Q.** Which Kd (Nur77-LBD; [6]) does the source give for `CCCC(=O)OC1=C(C)C2=CC=C3[C@@](C)(CC[C@@]4(C)[C@@H]5C[C@](C)(C(=O)OC)CC[C@]5(C)CC[C@]34C)C2=CC1=O` [XS0488] here?
**A.** The Kd was 1.28 µM.

**Q.** What about the “inhibitory effects on proliferation compared with YXY101” value [1] of the same compound?
**A.** The value was “close or even stronger than that of YXY101”.

**Q.** And the IC50 (MDA-MB-231; [5])?
**A.** Its IC50 is 1.9 µM.

**Q.** Which results are given for `CCOP(=O)(OCC)OC(=O)[C@]1(C)CC[C@]2(C)CC[C@]3(C)C4=CC=C5C(=CC(=O)C(O)=C5C)[C@]4(C)CC[C@@]3(C)[C@@H]2C1` [XS0491]?
**A.** Kd (Nur77-LBD): 0.336 µM; P-mTOR, P-p70S6K, and P—S6 in comparison with YXY101 (mTOR signaling pathway): can more significantly reduce P-mTOR, P-p70S6K, and P—S6

**Q.** With `CC1=C(O)C(=O)C=C2C1=CC=C1[C@@]2(C)CC[C@@]2(C)[C@@H]3C[C@](C)(C(=O)OP(=O)(OC(C)C)OC(C)C)CC[C@]3(C)CC[C@]12C` [XS0492] as the compound, how does the Kd (Nur77-LBD; [6]) read?
**A.** The Kd was 1.3 µM.

**Q.** And the “P-mTOR, P-p70S6K, and P—S6” value (mTOR signaling pathway)?
**A.** Its value is “can more significantly reduce P-mTOR, P-p70S6K, and P—S6”.

**Q.** What about the “PARP cleavage in comparison with YXY101” value (MDA-MB-231 cells) of the same compound?
**A.** Its value is “can more significantly induce PARP cleavage”.

**Q.** For `Cc1c(O)c(O)cc2c1CC=C1[C@@]2(C)CC[C@@]2(C)[C@@H]3C[C@](C)(CO)CC[C@]3(C)CC[C@]12C` [XS0503], which IC50 (MCF-7; MCF7, MCF-7, 24 h) is on record?
**A.** Its IC50 is 2.65 µM.

**Q.** What about the IC50 (MDA-MB-231; MDA-MB-231, 24 h, read-out: IC50 for inhibiting the proliferation) of the same compound?
**A.** Its IC50 is 1.19 µM.

**Q.** For `COC(=O)[C@]1(C)CC[C@]2(C)CC[C@]3(C)C4=CC(S(=O)(=O)[O-])c5c(cc(O)c(O)c5C)[C@]4(C)CC[C@@]3(C)[C@@H]2C1.[Na+]` (stereo partly shown) [XS0508], which “PARP cleavage in comparison with YXY101” value (MDA-MB-231 cells) is on record?
**A.** Its value is “can more significantly induce PARP cleavage”.

**Q.** What does the source list for `CC1=C(O)C(=O)C=C2C1=CC=C1[C@@]2(C)CC[C@@]2(C)[C@@H]3C[C@](C)(C(=O)O)CC[C@]3(C)CC[C@]12C` [YXY101, Celastrol]?
**A.** IC50 (wild-type Hela cells): 1.19 µM; IC50 (BT549): 0.245 µM; IC50 (MDA-MB-468): 0.187 µM; IC50 [3]: 58.2 µM; IC50 (T47D): 74.5 µM; IC50 (SKBR3): 2.65 µM; IC50 (MCF-7; MCF7, 72 h): 11.5 µM; IC50 (MDA-MB-231; MDA-MB-231, 72 h, read-out: IC50 for inhibiting the proliferation): 1.2 µM; adipose tissue morphology [4, 7]: the adipose tissue cells were arranged disorderly and some of the fibers were broken; heart tissue morphology [4, 7]: arranged disorderly; liver tissue morphology [4, 7]: the lobuli hepatis boundaries were blurred, the cytoplasm was reduced, and most of the hepatocytes died; small intestine tissue morphology [4, 7]: the intestinal tissue was swollen apparently, the cell death increases, the inflammatory reaction was obvious, the intestinal villi were arranged disorderly; adipose tissue morphology [4, 8]: the adipose tissue cells were arranged disorderly and had many inflammatory cell infiltration; heart tissue morphology [4, 8]: arranged disorderly; kidney tissue morphology [4, 8]: the kidney tissue had blurred glomerulus boundaries and many inflammatory cell infiltration, and the arrangement was not neat; liver tissue morphology [4, 8]: the lobuli hepatis had substantially obvious boundaries, the hepatocytes were plump and had normal morphology
